Our source for the IC50 values is patent publication US10669242B2 (priority 2016, dated 2020).

The assay deals with T1, recombinant glucosyltransferase domain of C. difficile Toxin B/TcdB (Clostridioides difficile, UniProt P18177).
T1 construct: 6-His (C); purchased R&D Systems 6246-GT
The experiment in a line: biochemical.

T1 sequence (P18177 1-543): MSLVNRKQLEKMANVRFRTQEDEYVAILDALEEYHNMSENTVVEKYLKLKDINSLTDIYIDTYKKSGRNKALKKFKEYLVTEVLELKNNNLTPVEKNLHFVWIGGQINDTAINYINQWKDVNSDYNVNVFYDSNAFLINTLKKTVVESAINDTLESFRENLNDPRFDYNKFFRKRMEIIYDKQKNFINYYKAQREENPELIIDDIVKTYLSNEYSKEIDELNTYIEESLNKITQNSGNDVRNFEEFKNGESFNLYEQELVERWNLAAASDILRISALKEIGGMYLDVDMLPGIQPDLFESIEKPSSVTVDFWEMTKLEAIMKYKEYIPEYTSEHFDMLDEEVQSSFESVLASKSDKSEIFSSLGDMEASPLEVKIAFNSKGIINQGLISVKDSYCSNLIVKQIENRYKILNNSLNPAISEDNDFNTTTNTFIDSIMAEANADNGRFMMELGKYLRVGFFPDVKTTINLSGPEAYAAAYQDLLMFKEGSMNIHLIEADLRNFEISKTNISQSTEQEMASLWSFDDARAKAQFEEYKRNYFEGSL

Consider `Cn1ccnc1C(=O)Nc1ccc(CN2C(=O)c3ccc(Cl)cc3NC(=O)[C@H]2Cc2ccccn2)cc1` [Example 27i], for which the IC50 (as a rule, the midpoint of a concentration-inhibition curve) was 100 to 999 nM.
With `O=C(O)c1ccc(CN2C(=O)c3ccc(F)cc3NC(=O)[C@H]2Cc2ccc(Cl)c(Cl)c2)cc1` [Example 2g] the figure was 1000 to 10000 nM; with `C[C@@H]1C(=O)Nc2cc(Cl)ccc2C(=O)N1Cc1ccc(C(=O)Nc2ccc(-c3ccccc3)cn2)cc1` [Example 4bc, (R)-4-((8-chloro-3-methyl-2,5-dioxo-2,3-dihydro-1H-benzo[e][1,4]diazepin-4(5H)-yl)methyl)-N-(5-phenylpyridin-2-yl)benzamide], 100 to 999 nM; with `O=C(O)c1ccc(CN2C(=O)c3ccc(Cl)cc3NC(=O)[C@H]2Cc2ccccn2)cc1-c1ccccc1` [Example 8e, (R)-5-((8-chloro-2,5-dioxo-3-(pyridin-2-ylmethyl)-2,3-dihydro-1H-benzo[e][1,4]diazepin-4(5H)-yl)methyl)-[1,1′-biphenyl]-2-carboxylic acid], 100 to 999 nM.
With `O=C(Nc1ccccn1)c1ccc(CN2C(=O)c3ccccc3NC(=O)[C@H]2Cc2cccnc2)cc1` [Example 35g] the figure was 100 to 999 nM; with `CN(C)CC(=O)Nc1cc(CN2C(=O)c3ccc(Cl)cc3NC(=O)[C@H]2Cc2ccccn2)ccc1C(=O)O` [Example 22d], 1000 to 10000 nM; with `O=C(Nc1ccccn1)c1ccc(CN2C(=O)c3cc(Cl)ccc3NC(=O)[C@H]2Cc2cccnc2)cc1` [Example 35h], 100 to 999 nM.
With `O=C(Nc1ccc(F)cn1)c1ccc(CN2C(=O)c3ccc(Cl)cc3NC(=O)[C@H]2Cc2ccccn2)cc1F` [Example 6c, (R)-4-((8-chloro-2,5-dioxo-3-(pyridin-2-ylmethyl)-2,3-dihydro-1H-benzo[e][1,4]diazepin-4(5H)-yl)methyl)-2-fluoro-N-(5-fluoropyridin-2-yl)benzamide] the figure was under 100 nM; with `COc1cc(CN2C(=O)c3ccc(Cl)cc3NC(=O)[C@H]2Cc2ccccn2)ccc1C(=O)c1ccccn1` [Example 11j, (R)-8-chloro-4-(3-methoxy-4-picolinoylbenzyl)-3-(pyridin-2-ylmethyl)-3,4-dihydro-1H-benzo[e][1,4]diazepine-2,5-dione], under 100 nM.
`CN1CCC(C(=O)Nc2cc(CN3C(=O)c4ccc(Cl)cc4NC(=O)[C@H]3Cc3ccccn3)ccc2C(=O)O)CC1` [Example 22i]: the IC50 fell in the range of 10000 to 35000 nM.
With `COCC(=O)Nc1cccc(CN2C(=O)c3ccc(Cl)cc3NC(=O)[C@H]2Cc2ccccn2)c1` [Example 28b] the figure was 1000 to 10000 nM; with `COc1ccc2c(c1)NC(=O)[C@@H](Cc1cccnc1)N(Cc1ccc(C(=O)O)cc1)C2=O` [Example 2e], 1000 to 10000 nM.
As to `Cc1ccc(NC(=O)c2ccc(CN3C(=O)c4ccc(N)cc4NC(=O)[C@H]3C)cc2)nc1` [Example 16a, (R)-4-((8-Amino-3-methyl-2,5-dioxo-2,3-dihydro-1H-benzo[e][1,4]diazepin-4(5H)-yl)methyl)-N-(5-methylpyridin-2-yl)benzamide], the IC50 lay within 1000 to 10000 nM.
With `CN1CCN(c2ccc(NC(=O)c3ccc(CN4C(=O)c5ccc(Cl)cc5NC(=O)[C@H]4Cc4ccccn4)cc3)nc2)CC1` [Example 4ax, (R)-4-((8-chloro-2,5-dioxo-3-(pyridin-2-ylmethyl)-2,3-dihydro-1H-benzo[e][1,4]diazepin-4(5H)-yl)methyl)-N-(5-(4-methylpiperazin-1-yl)pyridin-2-yl)benzamide] the figure was under 100 nM; with `CCc1ccc(NC(=O)c2ccc(CN3C(=O)c4ccc(Cl)cc4NC(=O)[C@H]3Cc3cccnc3)cc2)nc1` [Example 5k, (R)-4-((8-chloro-2,5-dioxo-3-(pyridin-3-ylmethyl)-2,3-dihydro-1H-benzo[e][1,4]diazepin-4(5H)-yl)methyl)-N-(5-ethylpyridin-2-yl)benzamide], under 100 nM; with `Cc1ccc(NC(=O)c2ccc(CN3C(=O)c4ccc(Cl)cc4NC(=O)[C@H]3Cc3cscn3)cc2)nc1` [Example 4al, (R)-4-((8-chloro-2,5-dioxo-3-(thiazol-4-ylmethyl)-2,3-dihydro-1H-benzo[e][1,4]diazepin-4(5H)-yl)methyl)-N-(5-methylpyridin-2-yl)benzamide], under 100 nM.
With `COCCC(=O)Nc1cc(CN2C(=O)c3ccc(Cl)cc3NC(=O)[C@H]2Cc2ccccn2)ccc1C(=O)O` [Example 22e] the figure was 1000 to 10000 nM.
With `O=C1Nc2cc(Cl)ccc2C(=O)N(Cc2ccc(CO)cc2)[C@@H]1Cc1ccccn1` [Example 41a, 8-Chloro-4-(4-(hydroxymethyl)benzyl)-3-(pyridin-2-ylmethyl)-3,4-dihydro-1H-benzo[e][1,4]diazepine-2,5-dione] the figure was 1000 to 10000 nM; with `NC(=O)c1ccc(CN2C(=O)c3ccc(Cl)cc3NC(=O)[C@@H]2Cc2ccc(Cl)c(Cl)c2)cc1` [Example 13a, (S)-4-((8-Chloro-3-(3,4-dichlorobenzyl)-2,5-dioxo-2,3-dihydro-1H-benzo[e][1,4]diazepin-4(5H)-yl)methyl)benzamide], 10000 to 35000 nM; with `O=C(Nc1ccc(CN2C(=O)c3ccc(Cl)cc3NC(=O)[C@H]2Cc2ccccn2)cc1)c1nccs1` [Example 27e], 100 to 999 nM.
For the compound `C[C@@H]1C(=O)Nc2cc(Cl)ccc2C(=O)N1Cc1ccc(C(=O)Nc2ccc(C(F)(F)F)cn2)c(-c2ccc3c(c2)OCO3)c1` [Example 54a], the IC50 was in the range of 1000 to 10000 nM.
With `COc1cccc(-c2cc(CN3C(=O)c4ccc(Cl)cc4NC(=O)[C@H]3Cc3ccccn3)ccc2C(=O)O)c1` [Example 8b, (R)-5-((8-chloro-2,5-dioxo-3-(pyridin-2-ylmethyl)-2,3-dihydro-1H-benzo[e][1,4]diazepin-4(5H)-yl)methyl)-3′-methoxy-[1,1′-biphenyl]-2-carboxylic acid] the figure was 100 to 999 nM.
As to `Cc1ccc(NC(=O)c2ccc(CN3C(=O)c4ccc(Cl)cc4NC(=O)[C@H]3Cc3ccccn3)cc2)nc1` [Example 4x, (R)-4-((8-chloro-2,5-dioxo-3-(pyridin-2-ylmethyl)-2,3-dihydro-1H-benzo[e][1,4]diazepin-4(5H)-yl)methyl)-N-(5-methylpyridin-2-yl)benzamide], the IC50 was under 100 nM.
With `Cc1ccc(NC(=O)c2ccc(CN3C(=O)c4ccc(NC(=O)c5cc(C)on5)cc4NC(=O)[C@H]3C)cc2)nc1` [Example 18c, (R)-5-methyl-N-(3-methyl-4-(4-((5-methylpyridin-2-yl)carbamoyl)benzyl)-2,5-dioxo-2,3,4,5-tetrahydro-1H-benzo[e][1,4]diazepin-8-yl)isoxazole-3-carboxamide] the figure was 1000 to 10000 nM; with `COc1ccc(COc2cc(CN3C(=O)c4ccc(Cl)cc4NC(=O)[C@H]3C)ccc2C(=O)O)cc1` [Example 38a, (R)-2-(4-Methoxybenzyloxy)-4-((8-chloro-3-methyl-2,5-dioxo-2,3-dihydro-1H-benzo[e][1,4]diazepin-4(5H)-yl)methyl)benzoic Acid], 10000 to 35000 nM; with `O=C(Nc1cccnn1)c1ccc(CN2C(=O)c3ccc(Cl)cc3NC(=O)[C@H]2Cc2ccccn2)cc1` [Example 4bl, (R)-4-((8-chloro-2,5-dioxo-3-(pyridin-2-ylmethyl)-2,3-dihydro-1H-benzo[e][1,4]diazepin-4(5H)-yl)methyl)-N-(pyridazin-3-yl)benzamide], 100 to 999 nM.
With `Cc1cccnc1C(=O)Nc1ccc(CN2C(=O)c3ccc(Cl)cc3NC(=O)[C@H]2Cc2ccccn2)cc1` [Example 26e] the figure was 1000 to 10000 nM; with `CS(=O)(=O)c1ccc(NC(=O)c2ccc(CN3C(=O)c4ccc(Cl)cc4NC(=O)[C@H]3Cc3ccccn3)cc2Cl)nc1` [Example 5av, (R)-2-chloro-4-((8-chloro-2,5-dioxo-3-(pyridin-2-ylmethyl)-2,3-dihydro-1H-benzo[e][1,4]diazepin-4(5H)-yl)methyl)-N-(5-(methylsulfonyl)pyridin-2-yl)benzamide], under 100 nM.
Turning to `Cc1cccc(NC(=O)c2ccc(CN3C(=O)c4ccc(Cl)cc4NC(=O)[C@H]3Cc3cccnc3)cc2)n1` [Example 4o, (R)-4-((8-chloro-2,5-dioxo-3-(pyridin-3-ylmethyl)-2,3-dihydro-1H-benzo[e][1,4]diazepin-4(5H)-yl)methyl)-N-(6-methylpyridin-2-yl)benzamide], the IC50 lay within 10000 to 35000 nM.
With `O=C(Nc1ncccn1)c1ccc(CN2C(=O)c3ccc(Cl)cc3NC(=O)[C@H]2Cc2cccnc2)cc1` [Example 5b, (R)-4-((8-chloro-2,5-dioxo-3-(pyridin-3-ylmethyl)-2,3-dihydro-1H-benzo[e][1,4]diazepin-4(5H)-yl)methyl)-N-(pyrimidin-2-yl)benzamide] the figure was under 100 nM; with `O=C(Nc1ccccn1)c1ccc(CN2C(=O)c3ccc(Cl)cc3NC(=O)[C@H]2c2ccccc2)cc1` [Example 35c], 1000 to 10000 nM.
With `Cc1cc(CN2C(=O)c3ccc(Cl)cc3NC(=O)[C@H]2Cc2ccccn2)ccc1C(=O)Nc1ccc(F)cn1` [Example 5ap, (R)-4-((8-chloro-2,5-dioxo-3-(pyridin-2-ylmethyl)-2,3-dihydro-1H-benzo[e][1,4]diazepin-4(5H)-yl)methyl)-N-(5-fluoropyridin-2-yl)-2-methylbenzamide] the figure was under 100 nM.
With `O=C(Nc1ccccn1)c1ccc(CN2C(=O)c3ccc(Cl)cc3NC(=O)[C@H]2Cc2ccncc2)cc1` [Example 4u, (R)-4-((8-chloro-2,5-dioxo-3-(pyridin-4-ylmethyl)-2,3-dihydro-1H-benzo[e][1,4]diazepin-4(5H)-yl)methyl)-N-(pyridin-2-yl)benzamide] the figure was 100 to 999 nM; with `Cc1ccc(NC(=O)c2ccc(CN3C(=O)c4ccc(NC(=O)c5cccnc5)cc4NC(=O)[C@H]3C)cc2)nc1` [Example 18e, (R)-N-(3-methyl-4-(4-((5-methylpyridin-2-yl)carbamoyl)benzyl)-2,5-dioxo-2,3,4,5-tetrahydro-1H-benzo[e][1,4]diazepin-8-yl)nicotinamide], 1000 to 10000 nM.
